Measurements as given in PubChem BioAssay AID256 (DTP/NCI, 2004).
Where “and” joins values, the source holds several entries; their conditions need not be identical. Identical values can stand only once. Toxic doses and inconclusive results are not listed. How the source made its calls: active means survival T/C of 150% or more; inactive means T/C below 125% in these data.

Tested on: CD2F1 mice, L1210 leukemia ip, survival T/C
Experiment: NCI In Vivo Anticancer Drug Screen. Data for tumor model L1210 Leukemia (intraperitoneal) in CD2F1 (CDF1) mice
Conditions: endpoint: mean survival time, higher = longer survival
In short: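 Mice carrying a transplanted tumor received test compound or vehicle alone. The value is the measurement in the treated group divided by that in the vehicle-treated control group.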

[1] = dose: 100.0 mg/kg/injection, schedule: Q01DX009 (ip), vehicle: saline
[2] = dose: 100.0 mg/kg/injection, schedule: Q01DX009 (ip), vehicle: saline with Tween-80
[3] = dose: 200.0 mg/kg/injection, schedule: Q01DX009 (ip), vehicle: saline with Tween-80
[4] = dose: 400.0 mg/kg/injection, schedule: Q01DX009 (ip), vehicle: saline with Tween-80
[5] = dose: 200.0 mg/kg/injection, schedule: Q01DX005 (ip), vehicle: distilled water + Tween-80
[6] = dose: 100.0 mg/kg/injection, schedule: Q01DX001 (ip), vehicle: saline with Tween-80
[7] = dose: 100.0 mg/kg/injection, schedule: Q04DX003 (ip), vehicle: saline with Tween-80
[8] = dose: 400.0 mg/kg/injection, schedule: Q04DX003 (ip), vehicle: saline with Tween-80

Measured: T/C

O=C(O)CS (tested in a mixture with another compound)
inactive: dose: 12.5 mg/kg/injection, schedule: Q01DX009 (ip), vehicle: saline 102 % of control | dose: 25.0 mg/kg/injection, schedule: Q01DX009 (ip), vehicle: saline 93 % of control | [1] 93 % of control

Cc1ccc(C)c(C(O)C2CC2)c1 (stereo unspecified)
inactive: [1] 96 % of control | dose: 200.0 mg/kg/injection, schedule: Q01DX009 (ip), vehicle: saline 100 % of control | dose: 400.0 mg/kg/injection, schedule: Q01DX009 (ip), vehicle: saline 102 % of control

CN1C(=O)CC(c2ccc(NC(=O)CI)cc2)C1=O (stereo unspecified)
inactive: dose: 6.25 mg/kg/injection, schedule: Q04DX002 (ip), vehicle: saline with Tween-80 92 % of control | dose: 12.5 mg/kg/injection, schedule: Q04DX002 (ip), vehicle: saline with Tween-80 96 % of control

Cc1ccc(S(=O)(=O)Nc2ccccc2-c2nc3ccc(C)cc3c(=O)o2)cc1
inactive: [2] 100 % of control | [3] 91 % of control | [4] 96 % of control

N#CC1c2ccccc2C=CN1C(=O)OCc1ccccc1 (stereo unspecified)
inactive: dose: 100.0 mg/kg/injection, schedule: Q04DX003 (ip), vehicle: Klucel (hydroxypropylcellulose) (HPC) 91 % of control | dose: 200.0 mg/kg/injection, schedule: Q04DX003 (ip), vehicle: Klucel (hydroxypropylcellulose) (HPC) 110 % of control | dose: 400.0 mg/kg/injection, schedule: Q04DX003 (ip), vehicle: Klucel (hydroxypropylcellulose) (HPC) 106 % of control

CC(C)(C)OC(=O)Cc1ncnc2c1ncn2C1OC(CO)C(O)C1O (stereo unspecified)
inactive: dose: 12.5 mg/kg/injection, schedule: Q01DX005 (ip), vehicle: distilled water + Tween-80 103 % of control | dose: 25.0 mg/kg/injection, schedule: Q01DX005 (ip), vehicle: distilled water + Tween-80 102 % of control | dose: 50.0 mg/kg/injection, schedule: Q01DX005 (ip), vehicle: distilled water + Tween-80 96 % of control | dose: 100.0 mg/kg/injection, schedule: Q01DX005 (ip), vehicle: distilled water + Tween-80 97 % of control | [5] 102 % of control

C[CH2][Sn]1([CH2]C)[O]C2C(CO)OC(n3cnc4c(=O)[nH]c(N)nc43)C2[O]1 (stereo unspecified)
inactive: dose: 0.78 mg/kg/injection, schedule: Q01DX005 (ip), vehicle: other 100 % of control | dose: 1.56 mg/kg/injection, schedule: Q01DX005 (ip), vehicle: other 100 % of control | dose: 3.13 mg/kg/injection, schedule: Q01DX005 (ip), vehicle: other 104 % of control | dose: 6.25 mg/kg/injection, schedule: Q01DX005 (ip), vehicle: other 102 % of control | dose: 12.5 mg/kg/injection, schedule: Q01DX005 (ip), vehicle: other 96 % of control and 110 % of control

COc1ccc2cc(CC(=O)c3ccccc3)ccc2c1
inactive: [2] 100 % of control | [3] 96 % of control | [4] 90 % of control

CCCCCCCCC/C=C(\CCCCCCCCCC)c1ccccc1
inactive: dose: 100.0 mg/kg/injection, schedule: Q01DX001 (ip), vehicle: saline 94 % of control | dose: 200.0 mg/kg/injection, schedule: Q01DX001 (ip), vehicle: saline 94 % of control | dose: 400.0 mg/kg/injection, schedule: Q01DX001 (ip), vehicle: saline 100 % of control

CC(C)C1=CC2=CCC3C(C)(CN)CCCC3(C)C2CC1CCN (stereo unspecified)
inactive: dose: 1.25 mg/kg/injection, schedule: Q01DX009 (ip), vehicle: saline with Tween-80 101 % of control | dose: 2.5 mg/kg/injection, schedule: Q01DX009 (ip), vehicle: saline with Tween-80 97 % of control | dose: 5.0 mg/kg/injection, schedule: Q01DX009 (ip), vehicle: saline with Tween-80 94 % of control

Cn1c(C(O)c2cccnc2)c(CN2CCCCC2)c2ccccc21 (stereo unspecified)
inactive: [6] 97 % of control | dose: 200.0 mg/kg/injection, schedule: Q01DX001 (ip), vehicle: saline with Tween-80 94 % of control

Cc1ccc(C(C)(c2ccccc2)C(C)(CC=O)CC(=O)O)cc1 (stereo unspecified)
inactive: [2] 95 % of control | [3] 94 % of control | [4] 97 % of control

c1ccc(CC23CN(C4CCCCC4)CC24N(c2ccccc23)C23CN(C5CCCCC5)CC2(Cc2ccccc2)c2ccccc2N43)cc1 (stereo unspecified)
inactive: [6] 90 % of control

CC(CC(=O)O)c1ccc(F)cc1 (stereo unspecified)
inactive: [7] 101 % of control | dose: 200.0 mg/kg/injection, schedule: Q04DX003 (ip), vehicle: saline with Tween-80 100 % of control | [8] 95 % of control

COc1ccc(NC(=S)NN)cc1
inactive: dose: 25.0 mg/kg/injection, schedule: Q04DX003 (ip), vehicle: saline with Tween-80 110 % of control | dose: 50.0 mg/kg/injection, schedule: Q04DX003 (ip), vehicle: saline with Tween-80 91 % of control | [7] 87 % of control and 96 % of control | [8] 107 % of control

COc1ccc(OC)c(NC(=O)c2cccc([N+](=O)[O-])c2)c1
inactive: [2] 90 % of control and 103 % of control | [3] 92 % of control and 93 % of control | [4] 89 % of control and 95 % of control

Cn1c(=O)c2c(ncn2C(C(N)=O)C(N)=O)n(C)c1=O
inactive: [5] 106 % of control | dose: 400.0 mg/kg/injection, schedule: Q01DX005 (ip), vehicle: distilled water + Tween-80 100 % of control
